# Source: patent publication US20110071094A1, “(D)-ALLOSE INDUCING PROGRAMMED CELL DEATH IN HORMONE REFRACTORY PROSTATE CANCER LINES” (INDUSTRY-ACADEMIC COOPERATION FOUDATION, GYEONGSANG …, priority 2008, published 2011)
# Columns and labels:
# [1] = test system: DU145 cell line; test: Cell viability / cell growth, MTT assay; assay type: cell-based, human; conditions: DU145, 0-40 mM, compared to control
# Description: DU145 (human HRPC cell line, derived from a patient with brain metastasis) and PrEC (human normal prostate epithelial cell line) cell lines were obtained from Korea Cell Line Bank (KCLB, Seoul, South Korea). DU145 and PrEC cell lines were grown in triplicate culture plates containing RPMI-1640 (HyClone, Logan, Utah, USA) and Dulbecco's Modified Eagle's Medium (HyClone, Logan, Utah, USA) respectively, and kept in a humidified atmosphere containing 5% CO2 at 37° C. for 72 h. The media were supplemented with 10% heat-inactivated fetal bovine serum (HyClone, Logan, Utah, USA), 1% antibio-antimicotic solution containing 10,000 units/ml of penicillin and 10 mg/ml of streptomycin (HyClone, Logan, Utah, USA), HEPES, sodium bicarbonate, p-aminobenzoic acid and insulin (complete culture media). D-Allose was purchased from Sigma (St. Louis, Mo., USA) and dissolved at a concentration of 1 M in sterile phosphate-buffered saline (PBS), and was further sterilized by filtration. To examine the dose- and time-dependent effects, the cell lines (70-80% confluent) were treated with 0-40 mM of D-allose for up to 72 h, whereas without D-allose treated cell lines (0 mM) were considered as control. DU145 cell line was also treated with 0-40 mM of D-glucose. All the other chemicals used in the work were procured from Sigma (St. Louis, Mo., USA), unless otherwise specified.
# The logarithmic growth phase of DU145 and PrEC cell lines were taken for growth assay using 3-[4,5-dimethylthiazol-2-yl]-2,5-diphenyl tetrazolium bromide (MTT). […] After incubation for the specified time at 37° C. in a humidified 5% CO2 incubator, cell viability was determined. […] To achieve solubilization of formazan crystal formed in viable cells, DMSO was added to each well, and the absorbance was recorded on a microplate reader at 595 nm wavelength. The effect of sugars on growth inhibition was assessed as percent cell viability where control cells were taken as 100% viable.
# [2] = test system: DU145 cell line; test: Apoptotic indices by DAPI staining, confocal microscopy; assay type: cell-based, human; conditions: DU145, 24, 48 and 72 h
# Description: The Annexin-V-FLUOS Staining Kit (Roche Diagnostics GmbH, Mannheim, Germany) was used for the detection and quantification of the apoptotic cells. This kit uses a dual-staining protocol in which the apoptotic cells are stained with annexin-V (green fluorescence) and the necrotic cells are stained with propidium iodide (PI, red fluorescence). Briefly, DU145 cell line was grown at a density of 1×10^6 cells in triplicate culture plates and then treated with D-allose (0, 20 and 40 mM) for 48 and 72 h. The cells were treated with trypsin and harvested with PBS and processed for labeling with annexin-V and PI by the use of the kit according to the manufacturer's protocol. The fluorescence was measured by flow cytometric analysis, performed on a FACSCalibur (Becton Dickinson, San Jose, Calif., USA) using 488 nm excitation and a 515 nm band pass filter for fluorescein detection and a filter [600 nm for PI detection (FL1: Annexin-V-FLUOS; FL2: PI). Further, apoptotic indices were measured by analysis of fragmented or scattered nuclei and condensed chromosome as the stringent morphological criteria of apoptosis, detectable by confocal microscopy on cells stained with DNA-intercalating dye […] (DAPI). For this purpose, DU145 and PrEC cell lines were exposed to 0, 20 and 40 mM of D-allose for up to 72 h, stained with DAPI (1 μg/ml in methanol), mounted with Prolong Antifade reagent (Molecular Probes, Eugene, Oreg., USA), and images were acquired by use of a confocal laser scanning microscope (Fluoview FV 1000, Olympus, Japan). The numbers of apoptotic nuclei per 100 cells were counted from the five high power fields/slide and apoptotic indices were expressed as a percentage of the untreated controls in each cell line, considering the value as 100%. DU145 cell line was also treated with 0-40 mM of D-glucose for determination of apoptotic indices as mentioned above.
smiles,measurement,setting,value
"O=C[C@H](O)[C@@H](O)[C@H](O)[C@H](O)CO [D-glucose, reference compound]",cell growth (MTT assay),[1],significant increase of cell growth in a dose-dependent manner
same,"programmed cell death (apoptotic indices, DAPI staining)",[2],no remarkable effect
